Measurements: patent publication US20240306670A1, “BERBERINE ALKALOIDS IN THE PREVENTION AND/OR TREATMENT OF INTESTINAL DISEASE” (priority 2017, published 2024)
Where two headings read alike, the source gives them in different places.

Tests used:
[1] = in vivo; cited from earlier work
[2] = in vivo
[3] = tested on: clinical isolate of C. difficile; assay: In vitro MIC and MBC against Clostridium difficile (Example 6); assay type: cell-based
[4] = tested on: Necrotic Enteritis strain of C. perfringens; assay type: cell-based, Clostridium perfringens
E. coli causing scour = assay: In vitro MIC against pig disease strains (Example 5); assay type: cell-based; conditions: all 5 strains of E. coli causing scour
[5] = tested on: Eimeria species (mainly E. acervulina)
[6] = cited from earlier work
[7] = tested on: Clostridium Perfringens (type A strain EHE-NE36) after Eimeria oocyst challenge; conditions: NE challenged broilers; for median lesion scores: relative to nil-treatment; for small intestinal lesion scores: relative to nil treatment
[8] = Feed palatability, feed and water consumption and bird productivity study (Example 2); assay type: in vivo, broiler chickens; conditions: treated birds, in-water days 6-42
Source text: A follow-up study to determine the feed palatability, feed and water consumption and bird productivity following incorporation of a single formulation of IRP001 hemisulfate salt (unmasked) when offered to broiler chickens in-feed or in-water. The study explores the optimal treatment regime in terms of treatment start date.
Phase 1: On receipt, two hundred and seventy (270) day-old commercial broiler chickens were allocated sequentially as they are received into sixteen (16) individual floor pens, each of 16 or 17 birds, on Day 0.
Phase 2: On receipt, the ninety (90) day-old commercial broiler chickens were allocated sequentially as they are received into four (4) individual floor pens, each of 22 or 23 birds, on Day 22.
Feed intake, water intake, weight gain and mortality were used as outcome parameters.
Individual daily feed intake and individual daily water intake data by pen and then by treatment group were calculated for Phases 1 and 2 (and for the entire trial for the birds in Group/Pen 2, 15 and 16 that continue through both Phases) using figures for total feed and water provided each day to each pen divided by the number of birds in each pen. Where errors in weighing, feeding/watering or recording (or other unexplained losses of feed and water) had occurred means were adjusted by using the mean value for the same pen on the 1-2 days either side of the apparent error. Similarly, group mean bodyweights were calculated for Phase 1 using total weight/total no. birds for Day 0 and individual weights from Days 7, 14, 21, 28, 35 and 42. Total (individual) feed consumed was calculated per treatment and feed conversion ratios per treatment calculated using the expression: total (individual) feed/total (individual) weight gain.
Individual daily feed intake and individual daily water intake were statistically compared by treatment within each phase and between Pens 2 and 15/16 over both phases using a linear model:—
and Tibco SPOTFIRE S+ 8.2 (2010). ‘Day’ was included in the model to allow for changes over time, ‘Pen’ as each treatment consisted of 2 pens while an interaction term ‘Treatment:Day’ was included to allow for treatment×time effects. Model suitability was confirmed by inspection of residual plots; in all instances the statistical model was appropriate.

## COc1ccc2cc3[n+](cc2c1OC)CCc1cc2c(cc1-3)OCO2 [IRP001, berberine]
[1]
  carcinogenicity finding: potential carcinogenicity
[2]
  adverse reactions / unanticipated events: no adverse reaction or unanticipated event
[3]; Clostridioides difficile, C. difficile clinical isolate, Berberine sulfate as test agent, variation between replicates, read-out: MIC
  MIC: 500 to 1000 µg/mL
[3]; Clostridioides difficile, against CD (C. difficile)
  MBC: 880 to 1000 µg/mL
[3]; Clostridioides difficile, against CD (C. difficile), read-out: MIC
  MIC: 640 to 820 µg/mL
[4]; C. perfringens NE strain, Berberine sulfate (purity 98.0%) as test agent
  MIC: 125 µg/mL
[4]; C. perfringens, at 62.5 µg/ml
  inhibition of growth: partial inhibition of growth

## CN[C@H](CC(C)C)C(=O)N[C@H]1C(=O)N[C@@H](CC(N)=O)C(=O)N[C@H]2C(=O)N[C@H]3C(=O)N[C@H](C(=O)N[C@H](C(=O)O)c4cc(O)cc(O)c4-c4cc3ccc4O)[C@H](O)c3ccc(c(Cl)c3)Oc3cc2cc(c3O[C@@H]2O[C@H](CO)[C@@H](O)[C@H](O)[C@H]2O[C@H]2C[C@](C)(N)[C@H](O)[C@H](C)O2)Oc2ccc(cc2Cl)[C@H]1O [Vancomycin, reference compound]
[3]
  MIC: within the expected range
[4]
  MIC: within the expected range

## COc1cc2c(cc1OC)-c1cc3ccc(OC)c(OC)c3c[n+]1CC2 [palmatine]
E. coli causing scour
  MIC: 125 µg/mL

## CC[C@@H](C(=O)[C@@H](C)[C@@H](O)[C@H](C)[C@@H]1O[C@@H]([C@@H](CC)C(=O)O)CC[C@@H]1C)[C@H]1O[C@]2(C=C[C@@H](O)[C@]3(CC[C@@](C)([C@H]4CC[C@](O)(CC)[C@H](C)O4)O3)O2)[C@H](C)C[C@@H]1C [salinomycin, Salinomycin, reference compound]
[5]; 21 days
  Intestinal health score: Ballooning (total gut): 0.10
  Intestinal health score: Contents lower intestine: 0.45
  Intestinal health score: Contents upper intestine: 0.65
  Intestinal health score: Hyperaemia lower intestine: 0.00
  Intestinal health score: Hyperaemia upper intestine: 0.15
  Intestinal health score: Tonus lower intestine: 0.50
  Intestinal health score: Tonus upper intestine: 0.50
  Intestinal health score: Total Intestine (maximum 10): 3.55
  Intestinal health score: Translucency lower intestine: 0.85
  Intestinal health score: Translucency upper intestine: 0.20^B
  Intestinal health score: Undigested particles in (rectum): 0.15^B
[5]; 28 days
  Intestinal health score: Ballooning (total gut): 0.80
  Intestinal health score: Contents lower intestine: 0.00
  Intestinal health score: Contents upper intestine: 1.00
  Intestinal health score: Hyperaemia lower intestine: 0.20
  Intestinal health score: Hyperaemia upper intestine: 0.80
  Intestinal health score: Tonus lower intestine: 0.60
  Intestinal health score: Tonus upper intestine: 0.80
  Intestinal health score: Total Intestine (maximum 10): 5.20
  Intestinal health score: Translucency lower intestine: 0.20
  Intestinal health score: Translucency upper intestine: 0.40
  Intestinal health score: Undigested particles in (rectum): 0.40
[5]; in vivo
  FCR 0-14 corrected for mortality: 1.113
  FCR 0-21 corrected for mortality: 1.238
  FCR 0-28 corrected for mortality: 1.470
  FCR 0-42 corrected for mortality: 1.546^BC
  Faecal oocyst count, Mean: 72,046 Oocyst/g
  Feed per bird over days 0-14: 497^AB g/bird
  Feed per bird over days 0-21: 1193^B g/bird
  Feed per bird over days 0-28: 2074 g/bird
  Feed per bird over days 0-42: 4298 g/bird
  Mean Coccidiosis Lesion Score (maximum 4) Caeca: 0.00
  Mean Coccidiosis Lesion Score (maximum 4) Duodenum: 1.35^ABC
  Mean Coccidiosis Lesion Score (maximum 4) Ileum: 0.00
  Mean Coccidiosis Lesion Score (maximum 4) Jejunum: 0.40^B
  Mean Coccidiosis Lesion Score Total: 1.75^B
  Mean Weight Gain over days 0-7: 116 gm
  Mean Weight Gain over days 8-14: 330^BC gm
  Mean Weight Gain over days 15-21: 517^A gm
  Mean Weight Gain over days 22-28: 645 gm
  Mean Weight Gain over days 29-42: 1384 gm
  Mean live weight at 0 days: 41 gm
  Mean live weight at 7 days: 157 gm
  Mean live weight at 14 days: 446^B gm
  Mean live weight at 21 days: 963^AB gm
  Mean live weight at 28 days: 1608^A gm
  Mean live weight at 42 days: 2991^A gm
  growth rate: statistically similar to the control group

## berberine hemisulfate [IRP001 sulfate]
[6]; ethanol
  solubility: slightly soluble
[6]; water
  solubility: about 30 parts water
[7]; 0.1 g/L in-water
  median lesion scores: no reduction in median lesion scores
[7]; 0.1 g/L in-water, vs nil-treatment
  Mortalities prior to autopsy: not significantly different
[7]; 0.2 g/kg in-feed
  median lesion scores: no reduction in median lesion scores
[7]; 0.2 g/kg in-feed, vs nil-treatment
  Mortalities prior to autopsy: not significantly different
[7]; 1.0 g/L in-water
  small intestinal lesion scores: substantial reduction in small intestinal lesion scores
[7]; 1.0 g/L in-water, relative to nil-treatment and low-dose groups
  Mortalities prior to autopsy: significant reduction in mortalities
[7]; 2.0 g/kg in-feed
  small intestinal lesion scores: substantial reduction in small intestinal lesion scores
[7]; 2.0 g/kg in-feed, relative to nil-treatment and low-dose groups
  Mortalities prior to autopsy: significant reduction in mortalities
[8]
  FCR (feed conversion ratio): 1.6 kg feed: 1 kg gain
  weight gained: 2.35 kg
